# Results: PMC7725003, “Systematically Studying the Optimal Amino Acid Distribution Patterns of the Amphiphilic Structure by Using the Ultrashort Amphiphiles” (Frontiers in Microbiology, 2020)
# Where no end group is shown, it is not given here.
# Experiments:
# [1] = tested on: E. coli 25922; type: cell-based, Escherichia coli; conditions: 25922, 24 h
# Procedure, shortened: (§1)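 Absorbance at 492 nm after 24 h at 37°C defined the MIC as the lowest peptide level inhibiting 95% of growth. Inoculum was 0.5–1 × 10^6 CFU mL^–1 mid-log cells in MHB; peptides were diluted in 0.2% BSA.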
# [2] = tested on: E. coli O78; type: cell-based, Escherichia coli; conditions: O78, 24 h
# Procedure, shortened: as §1
# [3] = tested on: E. coli UB1005; type: cell-based, Escherichia coli; conditions: UB1005, 24 h
# Procedure, shortened: as §1
# [4] = tested on: S. typhimurium 14028; type: cell-based, Salmonella typhimurium; conditions: 14028, 24 h
# Procedure, shortened: as §1
# [5] = tested on: S. typhimurium 7731; type: cell-based, Salmonella typhimurium; conditions: 7731, 24 h
# Procedure, shortened: as §1
# [6] = tested on: S. pullorum 7913; type: cell-based, Salmonella pullorum; conditions: 7913, 24 h
# Procedure, shortened: as §1
# [7] = tested on: P. aeruginosa 27853; type: cell-based, Pseudomonas aeruginosa; conditions: 27853, 24 h
# Procedure, shortened: as §1
# [8] = tested on: E. coli K88; conditions: for MIC: MHB, 24 h 37°C, 95% growth inhibition; for MBC: value in brackets, >99.9% of cells killed
# Procedure: (§2) The antimicrobial activities of the peptides were measured using a method adapted from the National Committee for Clinical Laboratory Standards (NCCLS) with some modifications ([Chou et al., 2016]). The specific procedure for these assays has been previously described. In brief, the bacterial cells were grown to a mid-logarithmic phase and diluted in MHB to an ultimate concentration of 0.5–1 × 10^6 CFU mL^–1. Subsequently, the peptides were consecutively diluted in a 0.2% BSA solution and then added to a bacterial solution in a 96-well plate at identical volumes. After incubation for 24 h at 37°C, the MICs were determined to be the lowest peptide concentration that inhibited 95% of the bacterial growth by monitoring the absorbance at 492 nm using a microplate reader. Subsequently, 50 μL of each incubation mixture was further transferred to agar plates and incubated overnight. […] Every assay was reproduced more than 3 times.
# [9] = tested on: E. coli K99; conditions: for MIC: MHB, 24 h 37°C, 95% growth inhibition; for MBC: value in brackets, >99.9% of cells killed
# Procedure: as §2
# [10] = tested on: Gram-negative bacteria; conditions: for GM MIC: geometric mean of MICs, 9 Gram-negative strains (Table 2); for TI, Gram-negative bacteria: therapeutic index TI = MHC/GM MIC
# Procedure, shortened: (§3)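 MIC is the lowest peptide concentration giving 95% growth inhibition, read at 492 nm after 24 h incubation at 37°C. Peptides were serially diluted in 0.2% BSA and added to mid-logarithmic cells at 0.5–1 × 10^6 CFU mL^–1 in MHB, following a modified NCCLS method, with more than 3 repeats.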
# [11] = tested on: Gram-positive bacteria; conditions: for GM MIC: geometric mean of MICs, 7 Gram-positive strains (Table 2); for TI, Gram-positive bacteria: therapeutic index TI = MHC/GM MIC
# Procedure, shortened: as §3
# [12] = tested on: S. aureus 25923; type: cell-based, Staphylococcus aureus; conditions: 25923, 24 h
# Procedure, shortened: as §1
# [13] = tested on: S. aureus 29213; type: cell-based, Staphylococcus aureus; conditions: 29213, 24 h
# Procedure, shortened: as §1
# [14] = tested on: S. epidermidis 12228; type: cell-based, Staphylococcus epidermidis; conditions: 12228, 24 h
# Procedure, shortened: as §1
# [15] = tested on: MRSA 43300; type: cell-based, methicillin-resistant S. aureus; conditions: 43300, 24 h
# Procedure, shortened: as §1
# [16] = tested on: B. subtilis 63501; type: cell-based, Bacillus subtilis; conditions: 63501, 24 h
# Procedure, shortened: as §1
# [17] = tested on: E. faecalis 29212; type: cell-based, Enterococcus faecalis; conditions: 29212, 24 h
# Procedure, shortened: as §1
# [18] = tested on: Listeria monocytogenes CGMCC 1.1075; type: cell-based; conditions: CGMCC 1.1075, 24 h
# Procedure, shortened: as §1
# [19] = tested on: all of the tested bacterial strains; test: Geometric mean of MICs, all tested bacterial strains; type: cell-based; conditions: for GM, All: geometric mean of MICs across all tested strains; for TI, All: therapeutic index TI = MHC/GM MIC
# Procedure, shortened: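 Per strain, MIC came from absorbance at 492 nm after 24 h at 37°C (≥95% inhibition), using mid-log inoculum of 0.5–1 × 10^6 CFU mL^–1 in MHB and peptide diluted in 0.2% BSA. MBC (>99.9% killed) came from overnight agar plating, and values are geometric means across strains.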
# [20] = tested on: E. coli ATCC 25922; test: Salt sensitivity assay (MIC); type: cell-based, Escherichia coli; conditions: for MIC, FeCl3: 4 μM FeCl3; for MIC, NH4Cl: 6 μM NH4Cl; for MIC, ZnCl2: 8 μM ZnCl2; for MIC, MgCl2: 1 mM MgCl2; for MIC, CaCl2: 2 mM CaCl2; for MIC, KCl: 4.5 mM KCl; for MIC, NaCl: 150 mM NaCl; for MIC, Control: no added salt, three independent assays
# Procedure, shortened: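 Peptides diluted serially in 0.2% BSA solution were combined at identical volumes with mid-logarithmic E. coli ATCC 25922 in MHB (0.5–1 × 10^6 CFU mL^–1) in 96-well plates, with or without a physiological salt. Plates were incubated for 24 h at 37°C. MIC was the lowest concentration inhibiting 95% of growth, measured as absorbance at 492 nm on a microplate reader.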
# [21] = tested on: S. aureus 29213; test: Salt sensitivity assay (MIC); type: cell-based, Staphylococcus aureus; conditions: for MIC, FeCl3: 4 μM FeCl3; for MIC, NH4Cl: 6 μM NH4Cl; for MIC, ZnCl2: 8 μM ZnCl2; for MIC, MgCl2: 1 mM MgCl2; for MIC, CaCl2: 2 mM CaCl2; for MIC, KCl: 4.5 mM KCl; for MIC, NaCl: 150 mM NaCl; for MIC, Control: no added salt, three independent assays
# Procedure, shortened: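 Physiological salts (150 mM NaCl, 4.5 mM KCl, 6 μM NH4Cl, 8 μM ZnCl2, 1 mM MgCl2, 2mM CaCl2, 4 μM FeCl3) added to MHB. Bacteria at 0.5–1 × 10^6 CFU/mL exposed to serially diluted peptides for 24 h at 37°C. MIC read as lowest peptide concentration giving 95% growth inhibition by absorbance at 492 nm.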
# [22] = tested on: Gram-negative bacteria; conditions: geometric mean of MBCs, 9 Gram-negative strains (Table 2)
# [23] = tested on: Gram-positive bacteria; conditions: geometric mean of MBCs, 7 Gram-positive strains (Table 2)
substance,measurement,setting,value
LRRLRLRLL-NH2 [L3],MBC,[1],16 µM
same,MIC,[1],8 µM
same,MBC,[2],32 µM
same,MIC,[2],16 µM
same,MBC,[3],32 µM
same,MIC,[3],16 µM
same,MBC,[4],128 µM
same,MIC,[4],64 µM
same,MBC,[5],64 µM
same,MIC,[5],32 µM
same,MBC,[6],16 µM
same,MIC,[6],8 µM
same,MBC,[7],128 µM
same,MIC,[7],64 µM
same,MIC,[8],8 µM
same,MBC,[8],16 µM
same,MIC,[9],16 µM
same,MBC,[9],32 µM
same,GM MIC,[10],18.66 µM
same,"TI, Gram-negative bacteria",[10],13.72
same,GM MIC,[11],64.00 µM
same,"TI, Gram-positive bacteria",[11],4.00
same,MIC,[12],> 64 µM
same,MIC,[13],>64 µM
same,MIC,[14],> 64 µM
same,MIC,[15],>64 µM
same,MBC,[16],16 µM
same,MIC,[16],8 µM
same,MIC,[17],> 64 µM
same,MBC,[18],32 µM
same,MIC,[18],16 µM
same,"GM, All",[19],32.00 µM
same,"TI, All",[19],8.00
same,"MIC, FeCl3",[20],16 µM
same,"MIC, NH4Cl",[20],16 µM
same,"MIC, ZnCl2",[20],16 µM
same,"MIC, MgCl2",[20],32 µM
same,"MIC, CaCl2",[20],32 µM
same,"MIC, KCl",[20],8 µM
same,"MIC, NaCl",[20],32 µM
same,"MIC, Control",[20],8 µM
same,"MIC, FeCl3",[21],> 64 µM
same,"MIC, NH4Cl",[21],> 64 µM
same,"MIC, ZnCl2",[21],> 64 µM
same,"MIC, MgCl2",[21],> 64 µM
same,"MIC, CaCl2",[21],> 64 µM
same,"MIC, KCl",[21],> 64 µM
same,"MIC, NaCl",[21],> 64 µM
same,"MIC, Control",[21],> 64 µM
same,GM MBC,[22],37.33 µM
same,GM MBC,[23],78.02 µM
LRRRLLLLR-NH2 [L6],MIC,[1],> 64 µM
same,MBC,[2],128 µM
same,MIC,[2],64 µM
same,MIC,[3],>64 µM
same,MIC,[4],> 64 µM
same,MIC,[5],> 64 µM
same,MIC,[6],>64 µM
same,MIC,[7],> 64 µM
same,MIC,[8],64 µM
same,MBC,[8],128 µM
same,MIC,[9],64 µM
same,MBC,[9],128 µM
same,GM MIC,[10],101.59 µM
same,"TI, Gram-negative bacteria",[10],2.52
same,GM MIC,[11],105.00 µM
same,"TI, Gram-positive bacteria",[11],2.44
same,MIC,[12],> 64 µM
same,MIC,[13],>64 µM
same,MIC,[14],> 64 µM
same,MIC,[15],>64 µM
same,MBC,[16],64 µM
same,MIC,[16],32 µM
same,MIC,[17],> 64 µM
same,MIC,[18],>64 µM
same,"GM, All",[19],103.07 µM
same,"TI, All",[19],2.48
same,"MIC, FeCl3",[20],> 64 µM
same,"MIC, NH4Cl",[20],> 64 µM
same,"MIC, ZnCl2",[20],> 64 µM
same,"MIC, MgCl2",[20],> 64 µM
same,"MIC, CaCl2",[20],> 64 µM
same,"MIC, KCl",[20],> 64 µM
same,"MIC, NaCl",[20],> 64 µM
same,"MIC, Control",[20],> 64 µM
same,"MIC, FeCl3",[21],> 64 µM
same,"MIC, NH4Cl",[21],> 64 µM
same,"MIC, ZnCl2",[21],> 64 µM
same,"MIC, MgCl2",[21],> 64 µM
same,"MIC, CaCl2",[21],> 64 µM
same,"MIC, KCl",[21],> 64 µM
same,"MIC, NaCl",[21],> 64 µM
same,"MIC, Control",[21],> 64 µM
same,GM MBC,[22],128.00 µM
same,GM MBC,[23],115.93 µM
